Values of other authors in patent publication US20130195925A1, “ANTI AGING APPLICATION AND METHOD FOR TREATING AGING” (VASKIN, LLC, priority 2011, published 2013).

Assays:
[1] = tested on: co-culture model of melanocytes and keratinocytes; conditions: fluorochrome transfer, flow cytometry
wounds = conditions: solution containing 5%
[2] = thought to be; compared with vitamin E
stem cell factor = conditions: human keratinocyte cell culture
[3] = tested on: UVB-induced pigmented skins of brownish guinea pigs; conditions: 0.5% Glabridin solution applied topically; backs of brownish guinea pigs
[4] = in vivo
[5] = in vivo; remark: listed apart in the source

NC(=O)c1cccnc1 [Niacinamide]
downregulation of the amount of melanosomes transferred [1]: 35%-68%

CC(=O)Oc1c(C)c(C)c2c(c1C)CCC(C)(CCC[C@H](C)CCC[C@H](C)CCCC(C)C)O2 (some centres unmarked) [Vitamin E acetate, Tocopheryl acetate]
wound healing time (wounds): decreased the healing time required

O=C(O[C@@H]1Cc2c(O)cc(O)cc2O[C@@H]1c1cc(O)c(O)c(O)c1)c1cc(O)c(O)c(O)c1 [EGCG, Epigallocatechin galate]
power for neutralizing free radicals relative to vitamin E [2]: 200 times

C=CCCCCCCCCC(=O)N[C@@H](Cc1ccccc1)C(=O)O [Undecylenoyl phenylalanine]
gene expression and protein release of stem cell factor (stem cell factor): suppresses

COc1cc(CCC(=O)CC(=O)CCc2ccc(O)c(OC)c2)ccc1O [Tetrahydrocurcumin]
safety for topical use: no irritant or sensitization side effects

CC1(C)C=Cc2c(ccc3c2OC[C@@H](c2ccc(O)cc2O)C3)O1 [Glabridin]
pigmentation induced by UVB radiation [3]: significantly reduced pigmentation

O=c1cc(CO)occ1O [kojic acid]
carcinogenic properties [4]: may have some carcinogenic properties
dermatitis [5]: can lead to dermatitis in some people
